# In patent US10441555B2, “Pharmaceutical composition” (Olatec Therapeutics LLC, priority 2012, dated 2019):
# Where a name gives a salt, the structure may show the parent alone.
# How the values were obtained:
# [1] = tested on: arachidonic acid-induced ear swelling; experiment: topical arachidonic acid-induced ear swelling model in mice; assay type: in vivo; conditions: male ICR mice, topical application 30 min before and 15 min after arachidonic acid; measured at 60 minutes; test compounds 375 mM, indomethacin 14 mM; n=10
# Protocol: The test compounds, indomethacin (positive control), and vehicle were evaluated for anti-inflammatory activity in a topical arachidonic acid-induced ear swelling model in mice. Male ICR mice weighing 22±2 g were used and randomly divided; each group had 10 mice. Arachidonic Acid (0.5 mg in 20 μl of acetone:ethanol/1:1) was applied topically to the anterior and posterior surfaces of the right ear of each mice. Test substances and vehicle, as listed in Table 1 were similarly applied 30 min before and 15 min after arachidonic acid application. The thickness of the right ear and the left ear was measured and the difference calculated as an indication of the inflammation in the right ear. Ear swelling was measured by a Dyer model micrometer gauge at 60 and 90 minutes after arachidonic acid application as an index of inflammation. Percent inhibition was calculated according to the formula: Ic−It/Ic×100, where Ic and It refers to increase of ear thickness (mm) in control and treated mice, respectively. ANOVA and Dunnett's test were employed to ascertain significant difference between vehicle control and treated groups. Significance is set at P<0.05 level.
melting point,SMILES,% Inhibition of ear swelling [1]
146.9 to 147.4 °C,CS(=O)(=O)CCCN (as salt: hydrochloride) [3-(methylsulfonyl)propylamine],
,CS(=O)(=O)CCC(N)=O [3-(methylsulfonyl)propionamide],30%
,CS(=O)(=O)CCCN [3-(methylsulfonyl)propylamine],42%
,"COc1ccc2c(c1)c(CC(=O)O)c(C)n2C(=O)c1ccc(Cl)cc1 [Indomethacin, indomethacin, reference compound]",54%
